Experimental data published in patent US20160271263A1 (Novo Nordisk A/S, priority 2010, published 2016).

Biological target: glucagon receptor (Homo sapiens, UniProt P47871)
Experiment: cell-based

Sequence of glucagon receptor (P47871 26-477): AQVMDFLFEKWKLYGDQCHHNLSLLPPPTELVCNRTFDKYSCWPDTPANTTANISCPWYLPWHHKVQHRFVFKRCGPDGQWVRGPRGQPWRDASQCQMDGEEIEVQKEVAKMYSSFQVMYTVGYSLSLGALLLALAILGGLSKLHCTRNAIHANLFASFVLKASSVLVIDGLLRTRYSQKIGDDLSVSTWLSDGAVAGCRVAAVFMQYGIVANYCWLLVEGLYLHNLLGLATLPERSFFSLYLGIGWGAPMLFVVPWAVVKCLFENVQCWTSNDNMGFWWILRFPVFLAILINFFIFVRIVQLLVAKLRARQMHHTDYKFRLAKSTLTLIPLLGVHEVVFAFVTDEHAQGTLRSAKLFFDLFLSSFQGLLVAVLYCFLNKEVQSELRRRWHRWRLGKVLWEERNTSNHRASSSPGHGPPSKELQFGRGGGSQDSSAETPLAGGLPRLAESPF

SMILES	EC50 [nM]
CC(C)C[C@H](NC(=O)[C@H](Cc1ccc(O)cc1)NC(=O)[C@H](CCCCN)NC(=O)[C@H](CO)NC(=O)[C@H](Cc1ccc(O)cc1)NC(=O)[C@H](CC(=O)O)NC(=O)[C@H](CO)NC(=O)[C@@H](NC(=O)[C@H](Cc1ccccc1)NC(=O)[C@@H](NC(=O)CNC(=O)[C@H](CCC(N)=O)NC(=O)[C@H](CO)NC(=O)[C@@H](N)Cc1c[nH]cn1)[C@@H](C)O)[C@@H](C)O)C(=O)N[C@@H](CC(=O)O)C(=O)N[C@@H](CO)C(=O)N[C@@H](CCCNC(=N)N)C(=O)N[C@@H](CCCNC(=N)N)C(=O)N[C@@H](C)C(=O)N[C@@H](CCC(N)=O)C(=O)N[C@@H](CCC(=O)O)C(=O)N[C@@H](Cc1ccccc1)C(=O)N[C@H](C(=O)N[C@@H](CCCCNC(=O)COCCOCCNC(=O)COCCOCCNC(=O)CC[C@H](NC(=O)CCCCCCCCCCCCCCCCC(=O)O)C(=O)O)C(=O)N[C@@H](CCCNC(=N)N)C(=O)N[C@@H](CC(C)C)C(=O)N[C@@H](CC(C)C)C(=O)N[C@@H](CC(N)=O)C(=O)N[C@H](C(=O)O)[C@@H](C)O)C(C)C [Example 58, N^ε24-([2-[2-[2-[[2-[2-[2-[[(4S)-5-hydroxy-4-[(18-hydroxy-18-oxooctadecanoyl)amino]-5-oxopentanoyl]amino]ethoxy]ethoxy]acetyl]amino]ethoxy]ethoxy]acetyl]) [Glu^21,Lys^24,Arg^25,Leu^27] Glucagon]	0.074
CC(C)C[C@H](NC(=O)[C@H](Cc1ccc(O)cc1)NC(=O)[C@H](CCCCN)NC(=O)[C@H](CO)NC(=O)[C@H](Cc1ccc(O)cc1)NC(=O)[C@H](CC(=O)O)NC(=O)[C@H](CO)NC(=O)[C@@H](NC(=O)[C@H](Cc1ccccc1)NC(=O)[C@@H](NC(=O)CNC(=O)[C@H](CCC(N)=O)NC(=O)[C@H](CO)NC(=O)[C@@H](N)Cc1c[nH]cn1)[C@@H](C)O)[C@@H](C)O)C(=O)N[C@@H](CC(=O)O)C(=O)N[C@@H](CO)C(=O)N[C@@H](CCCNC(=N)N)C(=O)N[C@@H](CCCNC(=N)N)C(=O)N[C@@H](C)C(=O)N[C@@H](CCC(N)=O)C(=O)N[C@@H](CC(=O)O)C(=O)N[C@@H](Cc1ccccc1)C(=O)N[C@H](C(=O)N[C@@H](CCC(N)=O)C(=O)N[C@@H](Cc1c[nH]c2ccccc12)C(=O)N[C@@H](CC(C)C)C(=O)N[C@@H](CC(C)C)C(=O)N[C@@H](CCCCNC(=O)CC[C@H](NC(=O)COCCOCCNC(=O)COCCOCCNC(=O)CC[C@H](NC(=O)CC[C@H](NC(=O)CCCCCCCCCCCCCCCCC(=O)O)C(=O)O)C(=O)O)C(=O)O)C(=O)N[C@H](C(=O)O)[C@@H](C)O)C(C)C [Example 66, N^ε28-[(4S)-4-carboxy-4-[[2-[2-[2-[[2-[2-[2-[[(4S)-4-carboxy-4-[[(4S)-4-carboxy-4-(17-carboxyheptadecanoylamino)butanoyl]amino]butanoyl]amino]ethoxy]ethoxy]acetyl]amino]ethoxy]ethoxy]acetyl]amino]butanoyl]-[Leu^27,Lys^28]-Glucagon]	0.093
